Experimental data: patent publication US6822146B2, “Sulfonylurea-tolerant sunflower line M7” (priority 2000, dated 2004)
Where a name gives a salt, the structure may show the parent alone.

Tests used:
[1] = system: Orobanche cumana (Race F); test: Test F sequential application to control Orobanche cumana; type: in vivo; conditions: post-emergence T3 15 g a.i./ha
Procedure: A greenhouse experiment was performed to identify the best sequential program compared to straight application of tribenuron-methyl or metsulfuron-methyl for control of Orobanche cumana (Race F). The dose range for optimum efficacy was also studied. Both herbicides were used as formulated compositions. […] BC4-M5M7×PHA155 is referred to below as “Hybrid 7”, and BC4-M5M12×PHA155 is referred to below as “Hybrid 12”.
Seed coating treatment was performed as described for Test D. Post-emergence treatments were applied at the 2-4 leaf stage of sunflower (corresponding to early stage of Orobanche attachment; identified as “T1”), the 6 leaf stage of sunflower (corresponding to the mid stage of Orobanche attachment; nodules <5 mm diameter; identified as “T2”) and 8 leaf stage of sunflower (corresponding to late stage of Orobanche attachment; identified as “T3”).
The efficacy was evaluated visually as described for Test D except that the efficacy was assessed ten days later than for Tests D and E. The later evaluation allowed observing any reduction of efficacy due to late Orobanche emergence or re-growth of treated nodules. Efficacy in controlling Orobanche attached to roots was evidenced by nodules comprising black necrotic tissues with no apparent active meristematic area. These nodules could be easily crushed between fingers.

Anagallis arvensis = test: Test H weed control, field plots; type: in vivo; parameters: concentration or dose not given beside the values; conditions: 36 days after treatment; g a.i./ha: tribenuron-methyl 22.5, metsulfuron-methyl 6, ethametsulfuron-methyl 16, imazapyr isopropylamine salt 15, aclonifen 1200
Source text: (§1) Field plots (2 m×5 m) were tilled to remove weed cover and then seeded in rows with the following weeds: Capsella bursa pastoris, Atriplex patula, Chenopodium album, Stellaria media, Mecurialis annua, Polygonum persicaria, Amaranthus retroflexus, Polygonum convolvulus, Polygonum aviculare, Viola arvensis, Matricaria inodora, Anagallis arvensis, Sinapis arvensis, Setaria viridis, Solanum nigrum and Echinochloa crusgalli. After 21 days from sowing, at which time the weeds had reached the 2- to 6-leaf stage, herbicide treatments were applied to the plots according to a complete randomized block design, with each herbicide treatment triply replicated. The herbicides were sprayed using standard flat fan nozzles moved perpendicular to the sown lines using water spray volumes of about 296 L/ha.
(§2) Assessments of weed control were made by visual inspection 36 days after herbicide treatment. A visual rating system was used based on a percentage scale from 0 to 100% compared to an adjacent untreated control plot. On this scale 0 represents no visual differences relative to an untreated control and 100 represents complete control of the given weed species.

Sinapis arvensis = test: Test H weed control, field plots; type: in vivo; parameters: concentration or dose not given beside the values; conditions: 36 days after treatment; g a.i./ha: tribenuron-methyl 22.5, metsulfuron-methyl 6, ethametsulfuron-methyl 16, imazapyr isopropylamine salt 15, aclonifen 1200
Source text: as §1, §2

Setaria viridis = test: Test H weed control, field plots; type: in vivo; parameters: concentration or dose not given beside the values; conditions: 36 days after treatment; g a.i./ha: tribenuron-methyl 22.5, metsulfuron-methyl 6, ethametsulfuron-methyl 16, imazapyr isopropylamine salt 15, aclonifen 1200
Source text: as §1, §2

Viola arvensis = test: Test H weed control, field plots; type: in vivo; parameters: concentration or dose not given beside the values; conditions: 36 days after treatment; g a.i./ha: tribenuron-methyl 22.5, metsulfuron-methyl 6, ethametsulfuron-methyl 16, imazapyr isopropylamine salt 15, aclonifen 1200
Source text: as §1, §2

Capsella bursa pastoris = test: Test H weed control, field plots; type: in vivo; parameters: concentration or dose not given beside the values; conditions: 36 days after treatment; g a.i./ha: tribenuron-methyl 22.5, metsulfuron-methyl 6, ethametsulfuron-methyl 16, imazapyr isopropylamine salt 15, aclonifen 1200
Source text: as §1, §2

Echinochloa crus-galli = test: Test H weed control, field plots; type: in vivo; parameters: concentration or dose not given beside the values; conditions: 36 days after treatment; g a.i./ha: tribenuron-methyl 22.5, metsulfuron-methyl 6, ethametsulfuron-methyl 16, imazapyr isopropylamine salt 15, aclonifen 1200
Source text: as §1, §2

Mercurialis annua = test: Test H weed control, field plots; type: in vivo; parameters: concentration or dose not given beside the values; conditions: 36 days after treatment; g a.i./ha: tribenuron-methyl 22.5, metsulfuron-methyl 6, ethametsulfuron-methyl 16, imazapyr isopropylamine salt 15, aclonifen 1200
Source text: as §1, §2

Solanum nigrum = test: Test H weed control, field plots; type: in vivo; parameters: concentration or dose not given beside the values; conditions: 36 days after treatment; g a.i./ha: tribenuron-methyl 22.5, metsulfuron-methyl 6, ethametsulfuron-methyl 16, imazapyr isopropylamine salt 15, aclonifen 1200
Source text: as §1, §2

Polygonum convolvulus = test: Test H weed control, field plots; type: in vivo; parameters: concentration or dose not given beside the values; conditions: 36 days after treatment; g a.i./ha: tribenuron-methyl 22.5, metsulfuron-methyl 6, ethametsulfuron-methyl 16, imazapyr isopropylamine salt 15, aclonifen 1200
Source text: as §1, §2

Polygonum persicaria = test: Test H weed control, field plots; type: in vivo; parameters: concentration or dose not given beside the values; conditions: 36 days after treatment; g a.i./ha: tribenuron-methyl 22.5, metsulfuron-methyl 6, ethametsulfuron-methyl 16, imazapyr isopropylamine salt 15, aclonifen 1200
Source text: as §1, §2

Polygonum aviculare = test: Test H weed control, field plots; type: in vivo; parameters: concentration or dose not given beside the values; conditions: 36 days after treatment; g a.i./ha: tribenuron-methyl 22.5, metsulfuron-methyl 6, ethametsulfuron-methyl 16, imazapyr isopropylamine salt 15, aclonifen 1200
Source text: as §1, §2

Atriplex patula = test: Test H weed control, field plots; type: in vivo; parameters: concentration or dose not given beside the values; conditions: 36 days after treatment; g a.i./ha: tribenuron-methyl 22.5, metsulfuron-methyl 6, ethametsulfuron-methyl 16, imazapyr isopropylamine salt 15, aclonifen 1200
Source text: as §1, §2

Matricaria inodora = test: Test H weed control, field plots; type: in vivo; parameters: concentration or dose not given beside the values; conditions: 36 days after treatment; g a.i./ha: tribenuron-methyl 22.5, metsulfuron-methyl 6, ethametsulfuron-methyl 16, imazapyr isopropylamine salt 15, aclonifen 1200
Source text: as §1, §2

Amaranthus retroflexus = test: Test H weed control, field plots; type: in vivo; parameters: concentration or dose not given beside the values; conditions: 36 days after treatment; g a.i./ha: tribenuron-methyl 22.5, metsulfuron-methyl 6, ethametsulfuron-methyl 16, imazapyr isopropylamine salt 15, aclonifen 1200
Source text: as §1, §2

Orobanche cumana = test: Test E control of Orobanche cumana in resistant sunflower hybrid; type: in vivo
Procedure: The effect of the various treatments was evaluated 35 days after sowing. The sunflower roots were cleaned by washing in water, and the presence of Orobanche nodules was determined visually and by weighing root wet mass in comparison to check plants free of Orobanche infestation. […] The nodules caused by Orobanche increased root weight, and a correlation (r=0.7) was found between visual scores and weight measurements. Thus the weighing technique could be used to corroborate visual efficacy scorings. Orobanche emergence was also scored but found to be less useful to evaluate treatment efficiency at the evaluation timing of this test.
(§3) Based on the results from Test D, a modified protocol was developed to include three timings of post-emergence treatment. The hybrid BC4-M5M12 (female parent)×PHA155 restorer line (male parent) described in Test C was used in this test. Various herbicide programs were tested using three replications. […] Seed coatings of these formulated herbicides were applied to 6 kg of seeds in such amount that considering the distribution of the coated seeds in each pot, the herbicide active ingredient (a.i.) application rates per hectare were as indicated.
(§4) The treatments were applied similar to the methods described for Test D. Pre-emergence applications were broadcast only, not soil incorporated. For pre-emergence application, the pots were sprayed using the high rates of the herbicides two days after sowing the sunflower seeds. Post-emergence treatments were applied at the 4-6 leaf stage of sunflower (corresponding to early stage of Orobanche attachment; identified as “T1”), the 6-8 leaf stage of sunflower (corresponding to the mid stage of Orobanche attachment; nodules <5 mm diameter; identified as “T2”) and 8-12 leaf stage of sunflower (corresponding to late stage of Orobanche attachment; identified as “T3”). The mid-stage applications included the high as well as low application rates of each herbicide.
(§5) For comparison were also included in this test other acetolactate synthase-inhibiting herbicides reported in the literature as giving good weed control of Orobanche (L. García-Torres et al., Weed Research 1994, 34, 395-402; L. García-Torres et al., Weed Technology 1995, 9, 819-824; J. Hershenhorn et al., Weed Technology 1998, 12, 108-114).

Stellaria media = test: Test H weed control, field plots; type: in vivo; conditions: 36 days after treatment; g a.i./ha: tribenuron-methyl 22.5, metsulfuron-methyl 6, ethametsulfuron-methyl 16, imazapyr isopropylamine salt 15, aclonifen 1200
Source text: as §1, §2

Chenopodium album = test: Test H weed control, field plots; type: in vivo; conditions: 36 days after treatment; g a.i./ha: tribenuron-methyl 22.5, metsulfuron-methyl 6, ethametsulfuron-methyl 16, imazapyr isopropylamine salt 15, aclonifen 1200
Source text: as §1, §2

[2] = system: BC4-M5M12 × PHA155 hybrid; test: Test E injury to sunflower hybrid; type: in vivo; conditions: in vivo
Procedure: as §3, §4, §5

'HA89B' seed = test: Determination of optimum mutagen concentration; type: in vivo, sunflower; conditions: EMS 20 to 40 mM
Procedure: Batches each consisting of 6000 seeds of ‘HA89B’ were incubated in 0.1 M potassium phosphate buffer (pH 5.6), supplemented with concentrations of EMS between 0 and 80 mM for 18 hours at room temperature, causing the seeds to swell. The seeds were rinsed in sodium thiosulfate for 1 minute to decompose the EMS, then in 5 consecutive water washes to eliminate EMS traces. The overall rinsing procedure lasted 5 hours. Seeds were dried for 2 hours at 25° C. using an airflow drier and then divided into sub-batches of 200 seeds each. To determine the effect of EMS on germination and plant branching, sub-batches were sown in flats right after drying and following 2, 4 and 6 days of storage at 4° C. after drying. Plant branching was used as a visual measure of mutation frequencies. Sub-batches from each EMS concentration were also sown in pots right after drying and grown to maturity to determine effect of EMS treatments on seed setting.

BC4-M5M12 = test: Test B greenhouse phytotoxicity, BC4-M5M12; type: in vivo, sunflower; conditions: BC4-M5M12; 15 g a.i./ha post-emergence 4-leaf stage
Procedure: (§6) A greenhouse experiment was conducted to evaluate the spectrum of tolerance of three homozygous resistant mutants to various herbicides inhibiting acetolactate synthase (ALS) as their mode of action. The inbred lines tested were the 5th generation self-pollinated maintainers, M5M7, M5M11 and M5M12, as well as the 4th generation male sterile back-crosses BC4-M5M7, BC4-M5M11 and BC4-M5M12. Treatments of formulated herbicides were applied post-emergence at the 4-leaf stage. Application rates of the test herbicides were chosen to coincide with the rates commonly used in the crops for which they are registered. The application rate of imazethapyr was chosen to match the rate recommended to control parasitic weeds in sunflowers by L. García-Torres et al., Weed Technology 1995, 9, 819-824. Wild type H89 inbred sunflower was not included in this test, because the many of the tested herbicides are known to be efficacious in controlling volunteer sunflower as a weed. Treatments were replicated twice. […] A rating of 0% phytotoxicity means no crop injury.

M5M7 = test: Test B greenhouse phytotoxicity, M5M7; type: in vivo, sunflower; conditions: M5M7; 15 g a.i./ha post-emergence 4-leaf stage
Procedure: as §6

BC4-M5M11 = test: Test B greenhouse phytotoxicity, BC4-M5M11; type: in vivo, sunflower; conditions: BC4-M5M11; 15 g a.i./ha post-emergence 4-leaf stage
Procedure: as §6

[3] = system: homozygous progeny of the three mutant sources; type: in vivo, sunflower; conditions: Test B application rates, post-emergence
Procedure: as §6

M5M11 = test: Test B greenhouse phytotoxicity, M5M11; type: in vivo, sunflower; conditions: M5M11; 15 g a.i./ha post-emergence 4-leaf stage
Procedure: as §6

BC4-M5M7 = test: Test B greenhouse phytotoxicity, BC4-M5M7; type: in vivo, sunflower; conditions: BC4-M5M7; 15 g a.i./ha post-emergence 4-leaf stage
Procedure: as §6

M5M12 = test: Test B greenhouse phytotoxicity, M5M12; type: in vivo, sunflower; conditions: M5M12; 15 g a.i./ha post-emergence 4-leaf stage
Procedure: as §6

| SMILES | weed control, visual rating: Anagallis arvensis (Anagallis arvensis) [%] | weed control, visual rating: Sinapis arvensis (Sinapis arvensis) [%] | weed control, visual rating: Setaria viridis (Setaria viridis) [%] | weed control, visual rating: Viola arvensis (Viola arvensis) [%] | weed control, visual rating: Capsella bursa pastoris (Capsella bursa pastoris) [%] | weed control, visual rating: Echinochloa crus-galli (Echinochloa crus-galli) [%] | weed control, visual rating: Mercurialis annua (Mercurialis annua) [%] | weed control, visual rating: Solanum nigrum (Solanum nigrum) [%] | weed control, visual rating: Polygonum convolvulus (Polygonum convolvulus) [%] | weed control, visual rating: Polygonum persicaria (Polygonum persicaria) [%] | weed control, visual rating: Polygonum aviculare (Polygonum aviculare) [%] | weed control, visual rating: Atriplex patula (Atriplex patula) [%] | weed control, visual rating: Matricaria inodora (Matricaria inodora) [%] | weed control, visual rating: Amaranthus retroflexus (Amaranthus retroflexus) [%] | weed control, visual rating: Stellaria media (Stellaria media) [%] | weed control, visual rating: Chenopodium album (Chenopodium album) [%] | further results |
| --- | --- | --- | --- | --- | --- | --- | --- | --- | --- | --- | --- | --- | --- | --- | --- | --- | --- |
| CC(C)C1(C)N=C(c2ncccc2C(=O)O)NC1=O (centres unmarked) [Imazapyr, isopropylamine salt, Imazapyr] | 100 | 100 | 93 | 0 | 100 | 27 | 47 | 100 | 94 | 100 | 0 | 85 | 43 | 84 | 100 | 87 | % Control in Hybrid 7 [1]: 97%; % Control in Hybrid 12 [1]: 97%; relative efficacy in controlling Orobanche (Orobanche cumana; Test E rates, metsulfuron-methyl compared with tribenuron-methyl): less efficacious in controlling Orobanche; Control (Orobanche cumana; post-emergence 15 g a.i./ha at T3): 72%; Injury [2]: 0%; sunflower phytotoxicity [2]: transitory phytotoxicity symptoms |
| CCOS(C)(=O)=O [EMS, ethyl methanesulfonate] | – | – | – | – | – | – | – | – | – | – | – | – | – | – | – | – | plants producing viable seed ('HA89B' seed): more than half of the plants produced viable seed; plant branching (visual measure of mutation frequencies) ('HA89B' seed; about 12% of plants from untreated seeds branched): more than half of the plants were branched |
| CCOc1nc(NC)nc(NC(=O)NS(=O)(=O)c2ccccc2C(=O)OC)n1 [Ethametsulfuron-methyl, ethametsulfuron-methyl] | 100 | 97 | 0 | 0 | 100 | 33 | 0 | 70 | 0 | 0 | 0 | 0 | 67 | 82 | 79 | 0 | Maximum Phytotoxicity (BC4-M5M12): 0%; Maximum Phytotoxicity (M5M7): 10%; Maximum Phytotoxicity (BC4-M5M11): 10%; tolerance of the mutants [3]: extremely resistant; Maximum Phytotoxicity (M5M11): 0%; Maximum Phytotoxicity (BC4-M5M7): 5%; Maximum Phytotoxicity (M5M12): 0% |
